The results in this text go back to US8507460B2, “Substituted 3′,5′-cyclic phosphates of purine nucleotide compounds and pharmaceutical compositions for the treatment of viral infections” (priority 2011, dated 2013).

The nature of series [1]: Stability in fresh human whole blood. The series is classed as in vitro ADME. The following applies: 0.5 μM, percent unchanged. As for the experimental part:
(§1) Stability of test compounds were determined in fresh human whole blood with K2EDTA as the anticoagulant (stored refrigerated at 2-8° C. and used within 7 days of receipt). The experiment was conducted with three replicates for each time point. Whole blood, pre-incubated at 37° C. for 10-15 minutes, was fortified with a solution of test compound for a final concentration of 0.5 μM and mixed for 30 sec. At intervals (0, 0.5, 1 and 2 hr), three […] aliquots were combined with 200 μL (each) of an ice-cold solution of the internal standard (carbutamide 500 ng/mL in acetonitrile). The samples were vortexed for 30 sec and then centrifuged at 16,100 g for 5 min. The supernatant was analyzed by LC-MS/MS. The MS peak area ratio of the test compound versus the internal standard was calculated and percent unchanged test compound was calculated for each time point using this ratio.

Series [2] is described as follows: Stability in liver and intestinal subcellular fractions (microsomes and S9). The following applies: 10 μM, NADPH, 60 min, percent unchanged. The format is in vitro ADME, human. As for the experimental part: Stability of test compounds were determined in subcellular fractions (microsomes and S9) of human liver and intestine in duplicate for each matrix. Pooled liver and intestinal microsomal, intestinal and liver S9 proteins (1.0 mg/mL), suspended in incubation buffer (100 mM potassium phosphate, pH […], and 0.1 mM EDTA), were preincubated for 5 min at 37° C. with 10 μM of a test compound from a 10 mM stock solution in DMSO (final DMSO concentration was 0.1%); the reaction was initiated by the addition of NADPH (3 mM final concentration). At specific times (0 and 60 min), 0.1 mL samples were taken and the reaction terminated by the addition of 4 volumes of stop solution (acetonitrile with 500 ng/mL carbutamide as an internal standard). The samples were vortexed for 30 sec and then centrifuged at 16,000 g for 10 min. 100 μL of supernatants were transferred to 96 deep-well plates preloaded with 100 μL distilled water and analyzed after mixing by LC-MS/MS. The MS peak area ratio of the test compound versus the internal standard was calculated and percent unchanged test compound over 60 minutes was calculated using this ratio.

Series [3] in a line: Stability in rat whole blood. The series is classed as in vitro ADME.
For a further series, the system named is fresh human hepatocytes. In words: Release of active metabolite in fresh human hepatocytes. The format is in vitro ADME. The following applies: 10 μM, 6 hr. As to the method: Plates of fresh human and mouse hepatocytes were obtained on ice. The medium was removed and replaced with hepatocyte culture medium (William's E supplemented with penicillin-streptomycin, 1% L-glutamine, 1% insulin-transferrin-selenium and 0.1 μM Dexamethasone (Invitrogen) or with Invitro GRO HI medium complemented with Torpedo antibiotics (Celsis)). Cells were left overnight in an incubator at 37° C. to acclimatize to culture and the medium.
Hepatocyte incubations were conducted at a final volume of 0.5 mL hepatocyte culture medium/well (0.8 million cells/well for human and 0.5 million cells/well for mouse; 12 well plate no overlay, collagen coat). Culture medium from overnight incubation of cells was removed and replaced with fresh medium, pre-warmed to 37° C., containing 10 μM of test compound from a stock solution in DMSO (final DMSO concentration was 0.1%). At each specific time point, incubation medium was removed and cell monolayers were carefully washed two times with ice-cold PBS. Following the last wash, all PBS was carefully removed and 1.0 mL of extraction solution (ice-cold 70% methanol/30% water) added. Cells were scraped off and suspended in the extraction solution, transferred to 2 mL polypropylene microfuge tubes and intracellular contents extracted overnight at −20° C.
After the overnight treatment the cellular extracts were prepared by centrifugation at 16,000×g for 10 min to remove cellular debris. The remaining sample was then dried using a refrigerated centrivap concentrator. Dry extracts were reconstituted in 1000 μL of HPLC-grade water and centrifuged at 16,000×g for 10 min. Aliquots (100 μL each) of the supernatant were transferred into a 96 well plate and internal standard (4 ng/mL final concentration) was added as the internal standard (IS) for LC-MS/MS analysis.
The incubation time points were 6, 24 and 48 hours for human hepatocytes and 1, 4, 8, 12 and 24 hours for mouse hepatocytes.

A short description of another series: Stability in mouse blood. The following applies: mouse whole blood, on ice, percent unchanged. The series is classed as in vitro ADME. As for the experimental part:
as §1
The stability in mouse blood was determined on ice at 0, 0.5 and 1 hr as above.

Series [4] is described as follows: Plasma and liver pharmacokinetics following a single oral dose in mice (Example 6). The series is classed as in vivo. The following applies: mouse, plasma, CD-1 mice, oral 25 mg/kg, 1a average of N = 2. As to the method: For each compound, a single oral dose at 25 mg/kg in PEG 200 (dose volume 5 mL/kg) was administered to [CD-1] mice. Untreated animals were used for the collection of control liver. Terminal liver and plasma samples were collected from three animals per time point at 4, 12 and 24 hours post dose and additionally at 1 hour post dose in one occasion of Compound 1 (see Example 5). Liver specimens were collected from all animals immediately after the incision. Freezing forceps stored in liquid nitrogen were used to freeze the liver before excision.
Plasma samples were analyzed for the prodrug and 2′-methylguanosine (2′-MeG) or relevant nucleoside by LC-MS/MS. For protein precipitation and extraction, each plasma sample (50 μL) was treated with 500 μL of 0.2% formic acid in acetonitrile and 20 μL of an appropriate internal standard working solution. After vortexing and centrifugation, 500 μL of the sample extracts were transferred to a new plate, dried under N2 at ˜28° C. and reconstituted with 75 μL of 0.2% FA in water. The extracts were chromatographed on an Aquasil C18 column using a gradient system of 0.2% formic acid in water and acetonitrile. The analytes were detected and quantified by tandem mass spectrometry in positive ion mode on an MDS Sciex API5000 or an API4000 equipped with a Turbo Ionspray® interface. The calibration range was 0.500 (LLOQ) to 200 ng/mL in mouse plasma. The corresponding range for molar units is 1.68 to 673 pmol/mL.
Liver samples were analyzed for the active species 2′-methylguanosine triphosphate (2′-MeGTP) or relevant nucleoside triphosphate by LC-MS/MS. The triphosphate levels were assayed by homogenizing (on ice) a known weight of mouse liver with 4× volume of 0.95 M trichloroacetic acid (TCA). Appropriate internal standard solution was added to the homogenate followed by neutralization with 20% ammonium hydroxide solution and addition of 500 μL 1% formic acid. The tissue samples were extracted by weak anion exchange solid phase extraction (SPE). Post extraction, the eluates were evaporated under nitrogen, followed by reconstitution before injection onto the LC-MS/MS system. The samples were chromatographed on a Luna NH2 column using a gradient system of ammonium acetate (1 mM to 20 mM and pH 8.0 to pH 10.0) in water and acetonitrile (70:30). The analyte was detected and quantified by tandem mass spectrometry in positive ion mode on an API4000 equipped with a Turbo Ionspray® interface. The calibration range was 10 to 10000 pmol/mL in mouse liver homogenate (50 to 50000 pmol/g of mouse liver).

What is called Cmax is the maximum level reached in the sampled fluid or tissue. As usually defined, the Tmax is the time at which the peak concentration occurs. Turning to `CCOc1nc(N)nc2c1ncn2[C@@H]1O[C@@H]2COP(=O)(OC(C)C)O[C@H]2[C@@]1(C)O` (single isomer, unassigned) [Compound 1a], the “Stability WB_Human (37° C.; 2 hr)” value in series [1] is listed as 101%. Also, in series [2] (HIS9 1.0 mg/mL), the “Stability HIS9 (1 hr)” value is 106%. The “Stability HIM (1 hr)” value in series [2] (human intestinal microsome 1.0 mg/mL) is 107%. Further, the “Stability HLS9 (1 hr)” value in series [2] (human liver S9 fraction 1.0 mg/mL) stood at 111%. Moreover, the “Stability HLM (1 hr)” value in series [2] (human liver microsome 1.0 mg/mL) came to 100%. Moreover, the “Stability WB_Rat (ice; 1 hr)” value in series [3] was 105%. Further, the “FHH TP (6 hr)” value in the series on fresh human hepatocytes is listed as “BLD^a”. Besides, in “Stability in mouse blood”, the “Stability WB_Mouse (ice; 1 hr)” value is 94%. Also, the AUC(0-t) in series [4] (normalized to 1 μmol/kg dose, read-out: Plasma prodrug AUC0-24) was 0.34 µM·h. For the same compound, the Cmax in series [4] (normalized to 1 μmol/kg dose, read-out: Plasma prodrug Cmax) stood at 43 nM. Also, the Tmax in series [4] (read-out: Plasma prodrug Tmax) turned out to be 3 h.
